Measurements: patent US6660283B2, “Use of cinnamic acid, or of at least one of its derivatives in a cosmetic composition” (Societe L'Oreal S.A., priority 1997, dated 2003)

Tested on: reconstructed human epidermis
Experiment: Incorporation of 14C acetate into total lipids of reconstructed human epidermis (Skinethic)
Format: cell-based
Conditions: for percentage of stimulation (incorporation of 14C acetate, lipid synthesis): relative to untreated cells = 100
Method: The study is carried out by measuring the incorporation of carbon-14-labelled acetate in models of reconstructed human epidermis sold by the company Skinethic, in which the composition of total lipids is close to that of normal human epidermis.
The reconstructed human epidermis cultures are prepared according to the supplier's recommendations.
Cinnamic acid, at concentrations of 10^−5, 10^−6 and 10^−7 M, is placed in contact for 72 hours with reconstructed human epidermes after they have been cultured for 14 days under the conditions recommended by the supplier. The labelling with ^14C acetate (sodium [2-^14C]-acetate sold by Amersham, 59 mCi/mmol) is carried out 24 hours after placing the test product in contact with the culture, i.e. during the final 48 hours of culturing, at a rate of 0.5 μCi of ^14C acetate per culture.
At the end of culturing, after washing the epidermes with phosphate buffer (PBS), the epidermides are dissociated and the cells are lysed with 0.5M perchloric acid on ice. The lysates are then extracted with a methanol/chloroform mixture (2:1), centrifuged and the pellets obtained are extracted again under the same conditions as before. The lipids are separated out by addition of PBS and chloroform (Blight-Byer technique). The organic phase containing the lipids is taken off and the radioactive incorporated in this phase is determined by liquid scintillation. The organic phase is then dried under a stream of nitrogen. Thin layer plate chromatography on Merck K60 plates is carried out using, as eluent, a chloroform/methanol/water mixture (50/18/2.6) to separate the phospholipids, or a hexane/ether/acetic acid mixture (15/5.6/0.19) to separate the neutral lipids.
The plates are then autoradiographed for 24 hours and the chromatograms are analysed by densitometry using the One-D-Scan software from the company Scanalytics.
The results are evaluated relative to a control consisting of cells which have not been treated with cinnamic acid.
A positive control (10^−4 M trifluoperazine), which is known to stimulate lipid synthesis, and a negative control (10^−6 M retinoic acid), which is known to inhibit lipid synthesis, are introduced into the test as reference.

## O=C(O)C=Cc1ccccc1 [cinnamic acid]
10^−5 M, 72 hours contact
  percentage of stimulation (incorporation of 14C acetate, lipid synthesis): 113%
10^−6 M, 72 hours contact
  percentage of stimulation (incorporation of 14C acetate, lipid synthesis): 109%
10^−7 M, 72 hours contact
  percentage of stimulation (incorporation of 14C acetate, lipid synthesis): 124%
Reconstructed human epidermis, 10^−5 to 10^−7 M
  effect on incorporation of 14C acetate (lipid synthesis), in words: significantly stimulates

## CN1CCN(CCCN2c3ccccc3Sc3ccc(C(F)(F)F)cc32)CC1 [trifluoroperazine, trifluoperazine, reference compound]
10^−4 M
  percentage of stimulation (incorporation of 14C acetate, lipid synthesis): 122%

## CC1=C(/C=C/C(C)=C/C=C/C(C)=C/C(=O)O)C(C)(C)CCC1 [retinoic acid, reference compound]
10^−6 M, 72 hours contact
  percentage of stimulation (incorporation of 14C acetate, lipid synthesis): 82%
